The test system of series [1] is mast cells obtained from bronchoalveolar lavage fluid. Conditions: 100 μM; human trials; cited from earlier work.
In another series the test system is rodent mast cell. Conditions: cited from earlier work.
The next series deals with human skin mast cells. Conditions: cited from earlier work.
For series [2] the following is noted: human, in vivo; cited from earlier work.
Series [3] concerns human conjunctival mast cells. Kind of series: Miller Test: inhibition of anti-IgE-induced histamine release (mast cell stabilization assay). Format: cell-based. The note with it: for inhibition at 10 µM / inhibition at 100 µM: * p < 0.05, Dunnett's t-test (dimaprit only); for inhibition at 1000 µM: * p < 0.05, Dunnett's t-test (both compounds). The text has this:
While mast cells exist in various tissues and species, there is considerable mast cell heterogeneity within these different sources. Therefore, in order to provide compounds of the present invention which are specific for human conjunctival mast cells, drug compounds need to be tested for inhibition of human conjunctival mast cell degranulation using human conjunctival mast cells. Such efficacy can be determined by using the method described in U.S. Pat. No. 5,360,720 (Miller et al.) and in Miller, et al., "Human conjunctival mast cell responses in vitro to various secretagogues," Ocular Immunology and Inflammation, volume 4, issue 1, pages 39-49 (1996) (the "Miller Test"), the entire contents of the forgoing patent and article are incorporated herein by reference.
The Miller Test is generally performed by the following protocol:
Human conjunctival tissue mast cells are isolated from post-mortem tissue donors obtained within 8 hours of death by various eye banks and transported in Dexsole corneal preservation medium. Tissues are then enzymatically digested by repeated exposure (30 minutes at 37° C.) to collagenase (Type IV) and hyaluronidase (Type I-S) (2 times with 200 U […] each/gram tissue, then 2-4 times with 2000 U each/gram tissue) in Tyrode's buffer containing 0.1% gelatin. Each digestion mixture is filtered over Nitex® cloth (100 µm mesh) and washed with an equal volume of buffer. Filtrates are centrifuged at 825×g (7 mininutes). Pellets are resuspended in buffer then combined for enrichment over a […] Percoll® cushion. The enriched pellet is then washed and resuspended in supplemented RPMI 1640 medium for equilibration at 37° C.
The preparations containing the mast cells are then placed in a culture medium, preferably supplemented RPMI 1640, and allowed to equilibrate at about 30°-37° C. for a minimum of about 40 hours.
After equilibrating for a minimum of about 40 hours, the cells may be harvested from the culture (for example, by gentle flushing utilizing pasteur pipettes), pooled and centrifuged.
Cell pellets may then be resuspended in buffer and viability and mast cell number determined by well known methods. The conjunctival mast cells are now prepared for use in mast cell stabilization assays.
All test drugs are placed into solution immediately prior to use. Generally, each compound is dissolved in Tyrode's buffer containing 0.1% gelatin and diluted to an appropriate concentration.
Cells are harvested from the culture plate and counted for viability (trypan blue exclusion) and mast cell number (toluidine blue O). Mast cells (5000/tube; 1 milliliter ("mL," final volume) are then challenged (37° C.) for 15 minutes with goat-anti-human IgE (10 μg/mL) following treatment (1 or 15 minutes; 37° C.) with test drug or Tyrode's buffer. Total and non-specific release controls are exposed to 0.1% Triton X-100 and goat IgG (10 μg/mL), respectively. The reaction was terminated by centrifugation (500×g, 4° C., 10 minutes). Supernatants are stored at -20° C. until analyzed for histamine content by radioimmunoassay ("RIA").
The IC50 of each compound (concentration at which 50% of the histamine release was inhibited, as compared to control) was then calculated.
The H2 agonists, dimaprit and amthamine, were tested in the Miller Test, as described in Example 1, above. Table I and FIG. 1 illustrate the efficacy of dimaprit and amthamine on the inhibition of histamine release from human conjunctival mast cells.

As to `O=C(O)c1cc(=O)c2c(OCC(O)COc3cccc4oc(C(=O)O)cc(=O)c34)cccc2o1` [Disodium cromoglycate], the “inhibition of mast cells obtained from bronchoalveolar lavage fluid” value in series [1] was “inhibited mast cells obtained from bronchoalveolar lavage fluid”. In addition, the “inhibition of rodent mast cell degranulation” value with rodent mast cell was “shown to inhibit rodent mast cell degranulation”. Besides, the “inhibition of histamine release from human skin mast cells” value with human skin mast cells is on record as “not inhibited at all”. In series [2], the “irritation / side effects” value was “irritating to some patients”.
Molecule `Cc1nc(N)sc1CCN` [amthamine] came in with an inhibition at 0.1 µM in series [3] (0.1 μM) of 11%. In series [3], this molecule registered an inhibition at 1 µM of 3.6 ± 3.9%, an inhibition at 10 µM of 7.3 ± 6.5%, an inhibition at 100 µM of 9.9 ± 8.6% and an inhibition at 1000 µM of 60.5 ± 6.2%.
In series [3], `CN(C)CCCSC(=N)N` [dimaprit] returned an inhibition at 1 µM of 10.1 ± 4.2%, an inhibition at 10 µM of 14.4 ± 9.3%, an inhibition at 100 µM of 35 ± 3.5% and an inhibition at 1000 µM of 75.9 ± 3.5%. This molecule also returned an inhibition at 10000 µM in series [3] (10,000 μM, * p < 0.05, Dunnett's t-test) of 83.6 ± 0.9%.

(Values after patent publication US6225332A, “Compositions containing histamine H2 agonists and methods of use in treating allergy and inflammation” (priority 1998, dated 2001).)
